Columns and labels:
Type in all cases: physicochemical
[1] = PTR-MS real-time headspace release, watermelon flavor model in water (Example 1); design: Sample A (PG) Mean / Sample B (1,3-propanediol) Mean: unit not given here; conditions: for Sample B (1,3-propanediol) Mean / Sample A (PG) Mean: PTR-MS headspace, diluted in water, 90 minutes equilibration, mean of three; for Sample B (1,3-propanediol) Mean: watermelon flavor concentrate in 1,3-propanediol; for Sample A (PG) Mean: watermelon flavor concentrate in propylene glycol; for Percent Release Difference: Sample B (1,3-propanediol) relative to Sample A (PG)
Method: The impact of 1,3-propanediol on the release of flavor compounds can be analyzed by Proton Transfer Reaction Mass Spectrometry (PTR-MS; model TOF-8000 from Ionicon Analytik Inc.), where real-time headspace release of volatiles is measured. A sampling apparatus is needed in conjunction with the PTR-MS inlet to prevent variations caused by headspace kinetics. By one exemplary approach, the sampling apparatus includes a 4 ounce sample vessel equipped with a 2-hole lid which may be sealed by an adhesive film to allow equilibration. […]. The holes are equal sized (˜2 mm diameter) and match the outer diameter of the PTR-MS inlet line. The flow of the dilution gas into the vessel is regulated by the vacuum and proportional valve of the PTR-MS inlet system. The sample vessel has a base diameter of 47 mm and is 45 mm high, of which 8 mm of height is occupied by the sample in the vessel in these experiments. The 2 holes in the lid are equidistant from the edge of the vessel (˜20 mm) and about 30 mm from each other. The PTR-MS inlet is braced by clamps in a fixed position vertically above the laboratory bench (˜55 mm) and a silicone rubber depth gauge is affixed to the PTR-MS inlet tubing and set at 18 mm. The PTR-MS inlet is thus consistently oriented in a vertical position 18 mm below the inside lid of the vessel and 19 mm above the sample in the vessel. The sample vessel is then held in place during sampling according to the depth gauge on the inlet line and the vessel is subsequently supported on the bench by a 10 mm plastic spacer.
15 grams of the sample to be tested (e.g., food or beverage product containing 1,3-propanediol) are added to the vessel. The vessel is sealed and allowed to equilibrate at room temperature (˜22° C.) for 90 minutes. At the time of sampling, the seal is removed from both the sampling hole and the dilution gas hole in the lid and the vessel is immediately affixed to the PTR-MS inlet via the sampling hole. The real-time released flavor is measured from the headspace of the sample vessel for two minutes (according to the conditions listed in Table 1 below). A comparative sample is prepared that is otherwise identical to the test sample but contains propylene glycol or water instead of 1,3-propanediol. The comparative sample is then analyzed in triplicate by PTR-MS using the above-described procedure. The data can be analyzed using PTR-MS Viewer, Version 3.0.0.101 (Ionicon Analytik G.m.b.H). The point of maximum intensity for each compound of interest can be determined and recorded according to the PTR-MS Viewer software. The maximum intensity in counts over the timescale for each compound of interest can be used for data analysis as it reflects the static equilibrium headspace concentration in the system at the moment of seal removal. Due to the necessity of a dilution gas, the volatile concentration decreases over time as the compounds of interest re-equilibrate to a state of dynamic equilibrium in the headspace.
[…]. Sample A was prepared with 20 grams watermelon flavor concentrate and 80 grams propylene glycol. Sample B was prepared with 20 grams watermelon flavor concentrate and 80 grams 1,3-propanediol. Each of the samples was further diluted by adding 0.08 grams of each diluted concentrate to 99.92 grams water to provide a flavor water solution.
The diluted samples were analyzed by Proton Transfer Reaction Mass Spectrometry (PTR-MS; model TOF-8000 from Ionicon Analytik Inc.) for real-time headspace release volatiles measurement. Samples were analyzed in triplicate. […]. […].

[2] = PTR-MS headspace release with various non-aqueous liquids (diols) at 0.05:100 (Example 3); conditions: ratio 0.05:100; for PTR-MS headspace release in 1,3-butanediol: non-aqueous liquid 1,3-butanediol; for PTR-MS headspace release in 1,3-butanediol / PTR-MS headspace release in 1,3-propanediol / PTR-MS headspace release in 1,4-butanediol / PTR-MS headspace release in 1,7-heptanediol / PTR-MS headspace release in Propylene glycol: diluted in water; for PTR-MS headspace release in 1,3-propanediol: non-aqueous liquid 1,3-propanediol; for PTR-MS headspace release in 1,4-butanediol: non-aqueous liquid 1,4-butanediol; for PTR-MS headspace release in 1,7-heptanediol: non-aqueous liquid 1,7-heptanediol; for PTR-MS headspace release in Propylene glycol: non-aqueous liquid propylene glycol
Method: […]. The flavoring was then diluted in water for analysis. The final concentration of each compound was held constant at 8 ppm except furfuryl mercaptan was included at 1.6 ppm to maintain a constant flavor level in the resulting beverage while the non-aqueous liquid varied but the ratio of each compound to non-aqueous liquid was held constant at 0.05:100. A variety of non-aqueous liquids were evaluated, including 1,4-butandiol; 1,7-heptandiol; 1,3-butandiol, propylene glycol, and 1,3-propanediol.
Samples were analyzed by PTR-MS as described in Example 1.
Percent suppression was calculated by the following formula: (I1-3-diol−Ialternate diol)/Ialternate diol×100.

[3] = PTR-MS headspace release at various flavor compound to 1,3-propanediol or PG ratios (Example 2); conditions: for Percent Suppression by 1,3-propanediol: (IZ−IPG)/IPG×100; for effect of 1,3-propanediol on release: flavor/1,3-propanediol ratio of 0.05:100; for release suppressed in the presence of 1,3-propanediol: 10% cut-off for significant difference, relative to PG
Method: The compounds listed below in Table 3 were added together to provide a liquid flavoring to analyze the role, if any, of the amount of 1,3-propanediol on flavor release. […] The amount of each flavor compound in the beverage was held constant at 8 ppm except furfuryl mercaptan was included at 1.6 ppm while the amount of propylene glycol or 1,3-propanediol varied.
The percent suppression was calculated using the following formula: (IZ−IPG)/IPG×100, where I is peak height, “Z” is 1,3-propanediol and “PG” is propylene glycol.

[4] = PTR-MS headspace release in neat solvent, solvent/solvent experiment (Example 5); design: key to Release Differences: “Z” indicates that 1,3-propanediol had higher equilibrium maximum (meaning more of the flavor was released in 1,3-propanediol); “P” indicates that propylene glycol had higher equilibrium maximum; “-” indicates no statistical difference (95% significance) between the two samples; conditions: 1.5 hrs equilibration; for Release Differences: 1,3-propanediol versus propylene glycol as sole solvent, 95% significance
Method: […]. Then the head space was analyzed as described above.
0.86 grams of the concentrate was added to 100 grams of either propylene glycol or 1,3-propanediol to provide a 1,3-propanediol diluted concentrate or propylene glycol diluted concentrate. The diluted concentrates were then further diluted as outlined in Table 10 below.
A 15 gram sample was weighed into a 4 oz vessel and analyzed at 1.5 hrs. of equilibration time as described in the method of Example 4.

[5] = ratio 0.005:100, negative = suppressed vs PG

Row | SMILES | Sample B (1,3-propanediol) Mean [1] | Sample A (PG) Mean [1] | Percent Release Difference [1] | PTR-MS headspace release in 1,3-butanediol [2] | PTR-MS headspace release in 1,3-propanediol [2] | PTR-MS headspace release in 1,4-butanediol [2] | PTR-MS headspace release in 1,7-heptanediol [2] | PTR-MS headspace release in Propylene glycol [2] | further results
1 | OCCCO [1,3-propanediol] |  |  |  |  |  |  |  |  | flavor retention compared to use of propylene glycol ([1]; watermelon flavor model, Table 2): generally resulted in increased flavor retention
2 | OCCCCCCCO [1,7-heptandiol, reference compound] |  |  |  |  |  |  |  |  | flavor release with the non-aqueous liquid relative to comparative diol [2]: faster release than propylene glycol
3 | CCC(C)COC(C)=O (stereo not shown) [2-methylbutyl acetate] | 4.27 | 5.30 | −19.5% |  |  |  |  |  | 
4 | C/C=C\C(=O)C1C(C)=CCCC1(C)C (stereo not drawn) [Alpha damascone] | 0.57 | 0.82 | −30.6% |  |  |  |  |  | 
5 | CCCCOC(=O)CCC [Butyl butyrate] |  |  |  | 27.9 | 13.57 | 49.4 | 46.4 | 10.50 | Percent Suppression by 1,3-propanediol [3, 5]: −3.3%; Percent Suppression by 1,3-propanediol ([3]; ratio 0.05:100): 29.2%; Percent Suppression by 1,3-propanediol ([3]; ratio 5:100): −20.5%; Percent Suppression by 1,3-propanediol ([3]; ratio 15:100): −8.2%; Release Differences [4]: Z; Percent suppression by 1,3-butanediol relative to 1,4-butanediol [2]: −77.2%
6 | CCCC(=O)O [Butyric acid] |  |  |  | 91.7 | 30.25 | 143.8 | 140.0 | 28.00 | effect of 1,3-propanediol on release [3]: minimal effect; Percent Suppression by 1,3-propanediol [3, 5]: 7.5%; Percent Suppression by 1,3-propanediol ([3]; ratio 0.05:100): 8.0%; Percent Suppression by 1,3-propanediol ([3]; ratio 5:100): −18.4%; Percent Suppression by 1,3-propanediol ([3]; ratio 15:100): −6.0%; Percent suppression by 1,3-butanediol relative to 1,4-butanediol [2]: −56.8%
7 | CC(C=O)Cc1ccc(C(C)C)cc1 (stereo not shown) [Cyclamen aldehyde] | 0.36 | 0.40 | −10.0% |  |  |  |  |  | 
8 | CCCCCCCCCC(=O)O [Decanoic acid] |  |  |  | 0.6 | 0.20 | 1.4 | 1.0 | 0.25 | effect of 1,3-propanediol on release [3]: minimal effect
9 | CCO [Ethanol] | 24.50 | 22.17 | 10.5% | 20.7 | 18.60 | 27.5 | 24.5 | 28.52 | release suppressed in the presence of 1,3-propanediol [3]: suppressed; effect of 1,3-propanediol on release [3]: significant suppression effect; Percent Suppression by 1,3-propanediol [3, 5]: 11.9%; Percent Suppression by 1,3-propanediol ([3]; ratio 0.05:100): −34.8%; Percent Suppression by 1,3-propanediol ([3]; ratio 5:100): −12.1%; Percent Suppression by 1,3-propanediol ([3]; ratio 15:100): −0.9%
10 | CCOC(C)=O [Ethyl acetate] | 1410 | 1797 | −21.5% |  |  |  |  |  | 
11 | O=CCc1ccccc1 [Phenyl acetaldehyde] | 0.78 | 0.80 | −2.5% |  |  |  |  |  | 

Continued, in another order:

Row | Sample B (1,3-propanediol) Mean [1] | Sample A (PG) Mean [1] | Percent Release Difference [1] | PTR-MS headspace release in 1,3-butanediol [2] | PTR-MS headspace release in 1,3-propanediol [2] | PTR-MS headspace release in 1,4-butanediol [2] | PTR-MS headspace release in 1,7-heptanediol [2] | PTR-MS headspace release in Propylene glycol [2] | SMILES | further results
12 | 1.25 | 1.25 | 0.0% |  |  |  |  |  | CCc1occc(=O)c1O [Ethyl maltol] | 
13 |  |  |  | 0.3 | 0.20 | 0.5 | 0.3 | 0.37 | CCCCCCO [Hexanol] | release suppressed in the presence of 1,3-propanediol [3]: suppressed; Percent Suppression by 1,3-propanediol [3, 5]: −3.6%; Percent Suppression by 1,3-propanediol ([3]; ratio 0.05:100): −45.9%; Percent Suppression by 1,3-propanediol ([3]; ratio 5:100): −9.8%; Percent Suppression by 1,3-propanediol ([3]; ratio 15:100): −20.0%; Release Differences [4]: Z; release in 1,3-propanediol versus propylene glycol, solvent/solvent [4]: released faster in 1,3-propanediol; Percent suppression by 1,3-butanediol relative to 1,4-butanediol [2]: −50.0%
14 | 1.32 | 0.95 | 38.8% |  |  |  |  |  | CCCCCCC(C=O)=Cc1ccccc1 [Hexyl cinnamic aldehyde] | 
15 |  |  |  | 40.9 | 12.35 | 62.5 | 63.5 | 12.51 | CC(C)CC=O [Isovaleraldehyde] | Percent Suppression by 1,3-propanediol [3, 5]: 3.7%; Percent Suppression by 1,3-propanediol ([3]; ratio 0.05:100): −1.3%; Percent Suppression by 1,3-propanediol ([3]; ratio 5:100): −22.2%; Percent Suppression by 1,3-propanediol ([3]; ratio 15:100): −2.6%; Percent suppression by 1,3-butanediol relative to 1,4-butanediol [2]: −53.0%
16 | 0.04 | 0.07 | −48.1% |  |  |  |  |  | CC(=O)CCc1ccc(O)cc1 [Raspberry ketone] | 
17 | 0.86 | 1.06 | −18.3% |  |  |  |  |  | CCC/C=C/C(=O)O [Trans-2-hexenoic acid] | 
18 | 0.05 | 0.05 | 3.4% |  |  |  |  |  | COc1cc(C=O)ccc1O [Vanillin] | 
